Like-named read-outs stand apart in the source and are kept apart here.
Columns and labels:
[1] = tested on: proinflammatory (M1) and anti-inflammatory (M2) markers; experiment: Ex vivo analysis of M1 and M2 markers in macrophages of EAE rats by realtime PCR; design: species or system rat; conditions: splenic macrophages day 13 post MBP-immunization and CNS infiltrating macrophages
Procedure: Ex vivo analysis of proinflammatory (M1) and anti-inflammatory (M2) markers in control and compound treated EAE rats. Splenic macrophages were harvested at day 13 post MBP-immunization and assayed for expression of a variety of markers by realtime PCR. CNS infiltrating cells were harvested and macrophages were analyzed for expression of M1 and M2 markers by realtime PCR.

[2] = tested on: experimental autoimmune encephalomyelitis (EAE); experiment: Rat experimental autoimmune encephalomyelitis (EAE) model, preventive treatment; format: in vivo
Procedure: A further study was carried out to study the impact of Lp-PLA2 inhibitors on modulating M1/M2 imbalance. In this study, rats were induced to develop experimental autoimmune encephalomyelitis (EAE) by immunization with myelin basic protein (MBP) antigen and treated with a known Lp-PLA2 inhibitor: 5-((9-Methoxy-4-oxo-6,7-dihydro-4H-pyrimido[6,1-a]isoquinolin-2-yl)oxy)-2-(3-(trifluoromethyl)phenoxy)benzonitrile (See PCT application no. PCT/CN2011/001597). In this preventive treatment model, the compound was administered at day 0 (day of immunization) and continued to administer until day 22. The study lasted for 25 days. Rats were subsequently monitored for symptoms of EAE. Rats were immunized with MBP to develop EAE and symptoms were monitored daily. Plasma Lp-PLA2 activity, OxLDL, and LysoPC concentration were determined at different time points through the course of EAE.

Lp-PLA2 in human plasma = biological target: T1, Lp-PLA2 in human plasma (Homo sapiens, UniProt Q13093); experiment: Lp-PLA2 human plasma assay (Thio-PAF assay); format: biochemical; conditions: pooled human plasma; read-out: pIC50 values in the thio-PAF assay (converted)
T1 construct: from tissue; host or cells: pooled human plasma
T1 sequence (Q13093 22-441): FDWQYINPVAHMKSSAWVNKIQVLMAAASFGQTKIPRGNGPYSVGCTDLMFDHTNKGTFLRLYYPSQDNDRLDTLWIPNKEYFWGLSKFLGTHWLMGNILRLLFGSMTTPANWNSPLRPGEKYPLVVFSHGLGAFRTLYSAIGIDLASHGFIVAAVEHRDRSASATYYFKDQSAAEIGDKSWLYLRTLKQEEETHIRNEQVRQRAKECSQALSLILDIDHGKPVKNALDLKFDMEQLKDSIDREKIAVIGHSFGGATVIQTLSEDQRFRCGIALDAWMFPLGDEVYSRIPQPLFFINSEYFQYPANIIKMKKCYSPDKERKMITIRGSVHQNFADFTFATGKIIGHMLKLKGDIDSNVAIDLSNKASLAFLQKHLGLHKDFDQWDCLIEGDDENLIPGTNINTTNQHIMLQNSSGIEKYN
In short: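 Pooled human plasma preincubated 30 min with compound, then 2-thio-PAF substrate added with CPM and NEM in 50 mM HEPES pH 7.4, 150 mM NaCl, 1 mM CHAPS. Quenched with TFA after 2 min, incubated 40 min at room temperature, and read by fluorescence at ex 380/em 485 nm. Values given as pIC50.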

[3] = biological target: T2, recombinant human Lp-PLA2 (Homo sapiens, UniProt Q13093); experiment: Recombinant human Lp-PLA2 assay (rhLp-PLA2, PED6 assay); format: biochemical
T2 sequence (Q13093 22-441): T1 sequence (Q13093 22-441)
In short: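 Enzyme (4 nM or 110 pM, as stated for the 5 μL addition) preincubated 30 min with compound in 50 mM HEPES pH 7.4, 150 mM NaCl, 1 mM CHAPS, then PED6 substrate (4 or 5 μM in the addition) added. Fluorescence (ex 480/em 540) read after 20 min, room temperature; pIC50 from curve fitting.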

[4] = read-out: pIC50 values in the recombinant human Lp-PLA2 assay (converted)

SMILES	IC50 (Lp-PLA2 in human plasma) [nM]	IC50 [3, 4] [nM]	other results
COc1ccc2c(c1)CCn1c-2cc(Oc2ccc(Oc3cccc(C(F)(F)F)c3)c(C#N)c2)nc1=O [5-((9-Methoxy-4-oxo-6,7-dihydro-4H-pyrimido[6,1-a]isoquinolin-2-yl)oxy)-2-(3-(trifluoromethyl)phenoxy)benzonitrile]			M1 markers [1]: decrease; M2 markers [1]: increase; Lp-PLA2 activity in rat EAE plasma ([2]; rat EAE plasma): decreased; LysoPC levels in rat EAE plasma ([2]; rat EAE plasma): decreased; clinical disease ([2]; rat EAE, administered day 0 until day 22): reduction in clinical disease
CC1CCn2c(cc(OCc3ccc(Oc4ccc(C(F)(F)F)nc4)c(F)c3)nc2=O)N1 (stereo not drawn) [E1, 8-((3-fluoro-4-((6-(trifluoromethyl)pyridin-3-yl)oxy)benzyl)oxy)-2-methyl-3,4-dihydro-1H-pyrimido[1,6-a]pyrimidin-6(2H)-one]	≤ 100	≤ 1	
C[C@@H]1CCn2c(cc(OCc3ccc(Oc4ccc(F)c(C(F)(F)F)c4)cc3)nc2=O)N1C [E87, (R)-8-((4-(4-fluoro-3-(trifluoromethyl)phenoxy)benzyl)oxy)-1,2-dimethyl-3,4-dihydro-1H-pyrimido[1,6-a]pyrimidin-6(2H)-one]	≤ 10	≤ 1	
C[C@H]1CCn2c(cc(OCc3ccc(Oc4ccc(C(F)(F)F)nc4)c(F)c3)nc2=O)N1C [E142, (S)-8-((3-fluoro-4-((6-(trifluoromethyl)pyridin-3-yl)oxy)benzyl)oxy)-1,2-dimethyl-3,4-dihydro-1H-pyrimido[1,6-a]pyrimidin-6(2H)-one]	≤ 10	≤ 1	
C[C@H]1CCn2c(cc(OCc3ccc(F)c(F)c3)nc2=O)N1C [E37, (S)-8-((3,4-difluorobenzyl)oxy)-1,2-dimethyl-3,4-dihydro-1H-pyrimido[1,6-a]pyrimidin-6(2H)-one]	≤ 100	≤ 1	
CN1c2cc(OCc3ccc(Oc4ccc(F)c(F)c4)c(C#N)c3)nc(=O)n2CCC1(C)C [E111, 2-(3,4-difluorophenoxy)-5-(((1,2,2-trimethyl-6-oxo-2,3,4,6-tetrahydro-1H-pyrimido[1,6-a]pyrimidin-8-yl)oxy)methyl)benzonitrile]	≤ 10	≤ 1	
CN1c2cc(OCc3ccc(Oc4ccnc(C(F)(F)F)c4)c(F)c3)nc(=O)n2CCC1(C)C [E89, 8-((3-fluoro-4-((2-(trifluoromethyl)pyridin-4-yl)oxy)benzyl)oxy)-1,2,2-trimethyl-3,4-dihydro-1H-pyrimido[1,6-a]pyrimidin-6(2H)-one]	≤ 10	≤ 1	
C[C@H]1CCn2c(cc(OCc3cc(F)c(Oc4cccc(C(F)(F)F)c4)c(F)c3)nc2=O)N1C [E62, (S)-8-((3,5-difluoro-4-(3-(trifluoromethyl)phenoxy)benzyl)oxy)-1,2-dimethyl-3,4-dihydro-1H-pyrimido[1,6-a]pyrimidin-6(2H)-one]	≤ 10		IC50 ([3]; read-out: rhLp-PLA2 (PED6 assay) (pIC50) (converted)): 3.98 nM
CN1c2cc(OCc3cccc(C#N)c3)nc(=O)n2CCC1(C)C [E133, 3-(((1,2,2-trimethyl-6-oxo-2,3,4,6-tetrahydro-1H-pyrimido[1,6-a]pyrimidin-8-yl)oxy)methyl)benzonitrile]	≤ 10	≤ 1	
